We go through four molecules from US7488811B2, “Macrolide compounds endowed with antiinflammatory activity” (Zambon Group S.p.A., priority 2002, dated 2009).

Molecules are shown by their SMILES. ≈ marks a conversion by molar mass, not a printed value.

The test system of data set [1] is Enterococcus faecalis ATCC 29212. In words: Antibiotic activity, MIC or activity at 128 μg/ml. Type of data set: cell-based. The following applies: Enter. faecalis ATCC 29212; for MIC: Enterococcus faecalis, ATCC29212. Here is the method: (§1) The MIC values were determined in liquid earth according to the method described in “Manual of Clinical Microbiology, 7th edition (1999), American Society for Microbiology”.

The subject of data set [2] is Staphylococcus aureus ATCC 29213. As to the kind of experiment: Antibiotic activity, MIC in liquid medium. The class given is cell-based. The settings on record: ATCC29213, Staph. aureus ATCC 29213. How it is done: as §1
Data set [3] concerns Streptococcus pneumoniae ATCC 49619. In words: Antibiotic activity, MIC in liquid medium. Type of data set: cell-based. The following applies: ATCC49619, Strep. pneum ATTC 49619. Here is the method: as §1
The test system of data set [4] is LPS-induced accumulation of neutrophils in rat lungs. In words: LPS-induced pulmonary inflammation in rats (neutrophil count in bronchial fluid wash). The class given is in vivo. The settings on record: single oral dose 100, 40, 10 μmol/kg one hour before LPS 0.4 mg/kg endotracheal, 20 h, erythromycin: single oral dose 130 μmol/kg; for ED50: Rattus norvegicus, Neutrophil, read-out: ED50 (dose inducing 50% reduction in neutrophil count in bronchial fluid wash). Here is the method:
B) LPS-Induced Pulmonary Inflammation in Rats • Administration
The rats received endotracheally, via the peroral route, a single dose of 0.4 mg/kg of LPS (E. coli, serotype 026:6). The tracheal instillation was performed under anaesthesia with halothane and, 20 hours after the endotracheal administration of LPS/saline solution, the animals were sacrificed by means of an overdose of urethane. • Washing
The lungs were washed with 4 aliquots of 5 ml each of saline solution with 10 IU ml^−1 heparin. The cell suspension was concentrated by low-speed centrifugation and the cell pellet was suspended. • Counting of the Cells and Differentiation.
The total cell count was performed in a haemocytometer.
The differential counting was performed on cytospin preparations stained with May-Grunwald-Giemsa (Tamaoki J., Tagaya E., Yamawaki I., Sakai, Nagai A., Konno K, 1995. Effect of erythromycin on endotoxin-induced microvascular leakage in the rat trachea and lungs. Am. J. Respir. Crit. Care Med., 151, 1582-8). The rats received the test compounds orally in doses of 100, 40 and 10 μmol/kg as a single administration dose orally one hour before exposure to LPS.
ED50 value is the dose that induced a 50% reduction in the neutrophil count in the bronchial fluid wash.
The data relating to erythromycin refers to an oral treatment with a single dose of 130 μmol/kg.

Data set [5] has as its system PMA-induced oedema in mouse ear. As to the kind of experiment: Acute contact dermatitis: TPA (PMA)-induced ear oedema in mice. The class given is in vivo. The settings on record: CD1 mice, 500 μg/ear topical in TPDS 30 min before TPA 0.01%, 6 h. How it is done:
Groups of 5-6 CD1 mice (18-24 g) were used. • Administration of the compounds
All the macrolide compounds were dissolved in Trans-phase Delivery System (TPDS), a vehicle formed by 10% benzyl alcohol, 40% acetone and 50% isopropanol.
15 microlitres of the compounds (500 μg), dissolved in TPDS, were applied topically to the inner surface of an ear; 30 minutes later, 12 microlitres of a solution of tetradecanoylphorbol acetate (TPA) at a concentration of 0.01% dissolved in acetone were applied to the same area.
Six hours later, the animals were sacrificed by inhalation of CO2. • Evaluation of the results
Two methods were used to evaluate the auricular oedema: • a) Weight of a given portion of auricular pinna. • b) Measurement of the auricular thickness using precision spring callipers.
The degree of oedema was calculated by subtracting the weight or the thickness of the untreated ear from that of the contralateral treated ear. To determine the degree of remission of the oedema, the difference (weight or thickness) of the groups treated with TPA+macrolides was then compared with the groups treated with TPA alone.
The activity of the macrolide compounds was measured by using the modified method of Zunic et al. (1998): MDL (Lysyl) GDP, a non-toxic muramyl dipeptide derivative inhibits cytokine production by activated macrophages and protects mice from phorbol ester- and oxazolone-induced inflammation (J. Invest. Dermatol., 111(1), 77-82).
The data relating to erythromycin and azythromycin concern the treatment with a single dose of 500 μg/ear.

Data set [6] concerns Staphylococcus aureus ATCC 6538. As to the kind of experiment: Antibiotic activity at 128 μg/ml. The class given is cell-based. The following applies: Staph. aureus ATCC 6538. How it is done: as §1
The subject of data set [7] is Streptococcus pyogenes ATCC 19615. As to the kind of experiment: Antibiotic activity at 128 μg/ml. Type of data set: cell-based. The settings on record: Strep. pyogenes ATTC 19615. Here is the method: as §1
Data set [8] is described as follows: Water solubility noted at work-up. The class given is physicochemical. The following applies: remark in the work-up. Here is the method:
Compound 19 was prepared from intermediate 28 (600 mg, 0.64 mmol) according to the procedures described for compound 1. Given that the product is water-soluble, the crude solid was dissolved in water (50′ ml) and washed with CH2Cl2 (3×20 ml). The solvent was evaporated from the aqueous phase under vacuum and dried to give compound 19 (480 mg, 95% yield) as a crystalline solid. • [M+1]^+ 775

The mark [9] stands for this setting: method a: weight of a given portion of auricular pinna.

Take `CC[C@H]1OC(=O)[C@H](C)[C@@H](O[C@H]2C[C@@](C)(OC)[C@@H](O)[C@H](C)O2)[C@H](C)[C@@H](O[C@@H]2O[C@H](C)C[C@H](N(C)C)[C@H]2O)[C@](C)(O)C[C@@H](C)C(=O)[C@H](C)[C@@H](O)[C@]1(C)O` [Erythromycin, reference compound]: the MIC came to 1 µg/mL (≈ 1.36 µM) in data set [1]; 0.25 µg/mL (≈ 0.341 µM) in data set [2]; 0.12 µg/mL (≈ 0.164 µM) in data set [3]; 0.25 µg/mL (≈ 0.341 µM) in data set [6] (Staphylococcus aureus, ATCC6538); 0.12 µg/mL (≈ 0.164 µM) in data set [7] (Streptococcus pyogenes, ATCC19615). Besides, in data set [4], the “ED50 (dose inducing 50% reduction in neutrophil count in bronchial fluid wash)” value is “Not active”. The inhibition in vivo at 500 µg/ear in data set [5] (setting [9]) was found to be 42%.

Take `CC[C@H]1OC(=O)[C@H](C)[C@@H](O)[C@H](C)[C@@H](O[C@@H]2O[C@H](C)CC[C@H]2O)C(C)(O)C[C@@H](C)/C(=N\O)[C@H](C)[C@@H](O)[C@]1(C)O` (stereo partly shown) [Compound 14]: the ED50 in data set [4] stood at 15 µmol/kg. In data set [5] (setting [9]), this molecule yielded an inhibition in vivo at 500 µg/ear of 71.5%.

On to `CC[C@H]1OC(=O)[C@H](C)[C@@H](O)[C@H](C)[C@H](O[C@@H]2O[C@H](C)CC(N(C)C)[C@@H]2O)[C@](C)(O)C[C@@H](C)/C(=N\OCCNCCNCc2nccs2)[C@H](C)[C@H](O)[C@]1(C)O` (stereo partly shown) [Compound 19], for which the MIC in data set [1] is above 128 µg/mL; in data set [2], above 128 µg/mL; in data set [3] it was 16 µg/mL (≈ 20.7 µM). The Solubility in water result in data set [8] is “water-soluble”. Moreover, the inhibition in vivo at 500 µg/ear in data set [5] (method b: auricular thickness by precision spring callipers) was found to be 28.2%.

For the molecule `CC[C@H]1OC(=O)[C@H](C)[C@@H](O)[C@H](C)[C@@H](O[C@@H]2O[C@H](C)C[C@H](N(C)C(C)=O)[C@H]2O)C(C)(O)C[C@@H](C)[C@H](O)[C@H](C)[C@@H](O)[C@]1(C)O` (stereo partly shown) [Compound 1], the “Antibiotic activity at 128 μg/ml” value in data set [1] (128 μg/ml), in data set [6] (128 μg/ml) and in data set [7] (128 μg/ml) was “not active” throughout. The MIC in data set [1], in data set [2] and in data set [3] was above 128 µg/mL throughout. Moreover, in data set [4], the ED50 was 7 µmol/kg. The inhibition in vivo at 500 µg/ear in data set [5] (setting [9]) is 65.6%.
